Data on 1 compound can be found in patent publication EP4620956A1, “PARP1 INHIBITORS” (Zhejiang Yangli Pharmaceutical Technology Co., Ltd., priority 2022, dated 2024).

The test system of assay [1] is MDA-MB-436 xenograft tumour. The assay can be described thus: Anti-tumour effect in MDA-MB-436 subcutaneous xenograft tumour mouse model. It is filed as in vivo. To be noted: same dose, MDA-MB-436 xenograft mice. The procedure:
Example 4 was further verified in vivo. A subcutaneous xenograft tumour mouse model of the BRCA1-mutated MDA-MB-436 cell line was selected. Human breast cancer MDA-MB-436 cells (ATCC, HTB-130) were cultured in vitro in a monolayer, with the culture conditions of L-15 medium supplemented with 10% foetal bovine serum, 1% penicillin-streptomycin solution, and 0.01 mg/mL bovine insulin, and cultured at 37°C in a CO2-free incubator. The cells were routinely digested and passaged twice a week using trypsin-EDTA. When the cell confluency reached 80%-90%, the cells were harvested and counted, and 0.2 mL of 1 × 10^7 MDA-MB-436 cells were subcutaneously inoculated on the right back of each mouse (PBS : Matrigel = 1 : 1). When the mean tumour volume reached 152 mm^3, the mice were grouped for drug administration. The day of drug administration was set as Day 0. The tumour volume and the body weight of the mice were monitored twice a week, and the drug treatment lasted for 28 days.
The diameter of the tumour was measured with a vernier calliper. The tumour volume is calculated according to the following equation: V = 0.5a × b^2, where a and b represent the long and short diameters of the tumour, respectively. The tumour inhibition effect of the compound was evaluated by relative tumour shrinkage rate Reg%. Reg% reflects the rate of tumour volume reduction after treatment. Reg% = (V0-Vt)/V0×100%, where V0 is the tumour volume measured at the time of grouping for drug administration (i.e., d0), and Vt is the tumour volume measured at a certain time point.
The criteria for compound response in the mouse model were adapted from mRECIST (Modified Response Evaluation Criteria in Solid Tumours) (Gao et al, 2015), and are specifically defined as follows: [formula] • PR (Partial Response): BestResponse < −50% and BestAvgResponse < −20%; [formula] • SD (Stable Disease): BestResponse < 35% and BestAvgResponse < 30%; [formula] • PD (Progressive Disease): other cases; • ORR% is the sum of the proportions of Complete Response (CR) and Partial Response (PR).
Statistical analysis was performed using Prism software, including the mean value (Mean) and standard error of the mean (SEM) of the tumour volume at each time point for each group. For the statistical analysis of TV, the original TV data from each measurement were used to compare the differences between groups. Two-way ANOVA was applied to include the two factors, i.e., drug administration and time for analysis, followed by the Tukey's multiple comparisons test, wherein p < 0.05 was considered statistically significant.

The target of assay [2] is T1, PARP1 (Homo sapiens, UniProt P09874).
T1 construct: purchased BPS 80501
T1 sequence (P09874 whole entry): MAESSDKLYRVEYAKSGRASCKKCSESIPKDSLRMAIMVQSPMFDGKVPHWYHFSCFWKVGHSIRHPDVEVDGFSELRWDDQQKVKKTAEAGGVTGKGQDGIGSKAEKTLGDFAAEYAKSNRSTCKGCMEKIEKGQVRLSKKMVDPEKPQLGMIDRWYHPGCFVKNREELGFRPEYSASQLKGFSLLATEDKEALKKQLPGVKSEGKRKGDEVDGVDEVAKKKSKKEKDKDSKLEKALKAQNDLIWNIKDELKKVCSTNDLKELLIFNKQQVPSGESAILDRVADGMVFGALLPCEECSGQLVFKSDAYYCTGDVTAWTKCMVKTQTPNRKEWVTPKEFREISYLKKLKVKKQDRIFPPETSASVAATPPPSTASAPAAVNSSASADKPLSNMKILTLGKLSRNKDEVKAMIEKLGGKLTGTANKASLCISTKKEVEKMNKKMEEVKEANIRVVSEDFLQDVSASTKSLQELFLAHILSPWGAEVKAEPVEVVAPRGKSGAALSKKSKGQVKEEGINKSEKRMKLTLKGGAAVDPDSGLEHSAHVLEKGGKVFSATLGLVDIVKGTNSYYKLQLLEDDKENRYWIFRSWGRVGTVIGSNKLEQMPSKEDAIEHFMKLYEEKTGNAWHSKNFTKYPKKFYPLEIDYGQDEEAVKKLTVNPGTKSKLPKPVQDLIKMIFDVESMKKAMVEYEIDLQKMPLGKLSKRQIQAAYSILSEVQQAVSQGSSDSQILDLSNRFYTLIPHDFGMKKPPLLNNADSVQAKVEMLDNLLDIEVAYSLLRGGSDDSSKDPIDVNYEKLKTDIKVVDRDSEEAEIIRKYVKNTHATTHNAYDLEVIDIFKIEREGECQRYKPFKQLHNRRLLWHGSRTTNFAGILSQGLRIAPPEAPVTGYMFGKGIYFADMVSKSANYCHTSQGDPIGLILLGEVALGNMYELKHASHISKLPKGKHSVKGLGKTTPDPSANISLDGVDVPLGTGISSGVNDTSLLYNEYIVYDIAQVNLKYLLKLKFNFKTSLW
In words: DNA trapping capability of PARP1 (HTRF). It is filed as biochemical.

Assay [3] relates to MDA-MB-436. In words: Anti-proliferative activity (CellTiter-Glo, 7 days), MDA-MB-436. The assay is classed as cell-based, human.
The test system of assay [4] is cleaved caspase-3. In words: Cleaved caspase-3 in MDA-MB-436 xenograft tumour tissues (immunoblotting). It is filed as in vivo, mice. To be noted: 10 days of treatment, 0.25 hours and 24 hours after the last administration, FIG. 5 and 6. The procedure: The pro-apoptotic effect of the compounds was further verified in vivo. The changes of cleaved caspase-3 in subcutaneous xenograft tumour tissues of MDA-MB-436 mice were detected by immunoblotting. After 10 days of treatment with different compounds, the animals were euthanized 0.25 hours and 24 hours after the last administration, and the tumour tissues were obtained for analysis. The rapidly frozen tumour tissues were placed on dry ice, 350 µL of complete cell lysis buffer (containing 1% protease inhibitors and phosphatase inhibitors) was added, the tissues were disrupted using Tissue grinder for 5 minutes, and the tissue lysate was placed on ice for 30 minutes. Centrifugation was performed at 12,000 rpm and 4°C for 10 minutes, the supernatant was placed in a new 1.5 mL centrifuge tube, and protein quantification was carried out using a BCA quantification kit. According to the quantitative results, the sample protein concentration was uniformly adjusted to 2 µg/µL, LDS loading buffer (4X) and sample reducing agent (10X) were added, and the samples were heated at a constant temperature of 100°C for 10 minutes. For Western blotting, 10 µL of sample was loaded into each well of an SDS-PAGE gel, and electrophoresis was performed at 80 V for 30 minutes, followed by 120 V for 90 minutes. […] The membrane was then cut according to the molecular weights of the proteins to be detected. […]

In the case of `[2H]C([2H])([2H])NC(=O)c1ccc(N2CCN(Cc3cnc4c(N)c(CC)c(=O)[nH]c4c3)CC2)c(F)n1` [Example 4, 5-(4-((8-Amino-7-ethyl-6-oxo-5,6-dihydro-1,5-naphthyridin-3-yl)methyl)piperazin-1-yl)-6-fluoro-N-(methyl-d3)picolinamide], the tumour regression entry in assay [1] (FIG. 3) is given as “promoted tumour regression”. The ORR in assay [1] (treatment 28 days) worked out at 60%. Also, in assay [2], the EC50 came out at 3.8 nM. Further, in assay [3] (Homo sapiens, MDA-MB-436, 168 h, BRCA1-mutated, 7 days, read-out: MDA-MB-436 IC50), the half-maximal inhibitory concentration (IC50) was 1.93 nM. Besides, the “BRCA1 mutation/WT selectivity fold” value in assay [3] (MDA-MB-231 vs MDA-MB-436) is recorded as >5,181 fold. Besides, the “cleaved caspase-3 in tumour tissues” value in assay [4] was “induced an increase in cleaved caspase-3”.
